Laboratory results reported in article PMC9307089 (Journal of medicinal chemistry, 2021).
Numbered stars: 1 amine (or outer) side, 2 acyl side, 3 side chain; on linkers, the order of the positions; unused ones are H or OH. Bridge positions count the residues as written; N and C are the ends. Square brackets hold non-standard residues; d marks the D form. Peptide text beside a SMILES is read from it. X1 = N=C(N)NCCC[C@H](N[*:1])C(=O)c1nc2ccc(C(=O)[*:2])cc2s1

Assays:
matriptase = biological target: T1, matriptase (Homo sapiens, UniProt Q9Y5Y6); assay: Fluorescent kinetic enzyme inhibition assay, matriptase; assay type: biochemical
T1 sequence (Q9Y5Y6 615-855 limits assumed): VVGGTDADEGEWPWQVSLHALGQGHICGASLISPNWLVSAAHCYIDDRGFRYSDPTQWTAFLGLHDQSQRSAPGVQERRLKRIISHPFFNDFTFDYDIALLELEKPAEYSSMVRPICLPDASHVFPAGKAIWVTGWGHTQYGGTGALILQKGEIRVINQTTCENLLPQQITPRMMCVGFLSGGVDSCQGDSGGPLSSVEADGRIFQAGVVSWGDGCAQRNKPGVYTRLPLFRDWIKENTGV

[1] = In vitro stability in mouse plasma; assay type: in vitro ADME
Factor Xa = Factor Xa (Homo sapiens, UniProt P00742); assay: Chromogenic kinetic enzyme assay, Factor Xa; assay type: biochemical
Factor Xa, sequence (P00742 235-488 limits assumed): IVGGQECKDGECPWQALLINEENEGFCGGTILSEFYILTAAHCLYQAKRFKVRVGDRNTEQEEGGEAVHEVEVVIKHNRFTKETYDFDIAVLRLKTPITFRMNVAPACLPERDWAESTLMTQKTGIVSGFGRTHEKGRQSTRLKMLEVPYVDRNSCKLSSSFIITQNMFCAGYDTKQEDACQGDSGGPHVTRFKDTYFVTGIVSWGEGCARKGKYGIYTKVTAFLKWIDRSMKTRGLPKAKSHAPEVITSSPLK
Factor Xa, sequence (P00742 41-179 partner limits assumed): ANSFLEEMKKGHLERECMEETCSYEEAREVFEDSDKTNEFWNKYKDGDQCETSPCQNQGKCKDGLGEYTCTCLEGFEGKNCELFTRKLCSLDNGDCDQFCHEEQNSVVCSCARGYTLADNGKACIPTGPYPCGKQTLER

thrombin = thrombin (Homo sapiens, UniProt P00734); assay: Chromogenic kinetic enzyme assay, thrombin; assay type: biochemical
[2] = In vitro stability in human plasma; assay type: in vitro ADME
[3] = biological target: T2, recombinant serine protease domain of HGFA (Homo sapiens, UniProt Q04756); assay: Fluorescent kinetic enzyme inhibition assay, HGFA; assay type: biochemical
T2 sequence (Q04756 408-646 limits assumed): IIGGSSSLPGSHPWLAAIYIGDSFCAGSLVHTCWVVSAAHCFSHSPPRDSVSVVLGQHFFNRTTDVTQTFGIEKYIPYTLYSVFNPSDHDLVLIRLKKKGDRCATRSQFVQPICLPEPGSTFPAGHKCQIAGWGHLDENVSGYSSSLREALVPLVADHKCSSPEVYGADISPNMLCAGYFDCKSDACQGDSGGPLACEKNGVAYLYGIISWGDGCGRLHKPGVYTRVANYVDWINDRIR

IC50 (matriptase): 11 nM
half-life [1]: > 4.82 h
IC50 (Factor Xa): 118 nM
IC50 (thrombin): 34 nM
half-life [2]: > 4.82 h
IC50 [3]: 5380 nM
Compound: CC(=O)N[C@H]1CC(=O)NCCCC[C@@H](C(=O)N[C@@H](CCCNC(=N)N)C(=O)c2nc3ccc(C(=O)N[C@H](C(N)=O)C(C)C)cc3s2)NC(=O)[C@H](CC(C)C)NC1=O [Compound 20, Ac-cyclo(DLK)-R- ketobenzothiazole-V-amide] (Ac-DLK[X1]V-NH2; lactam 1-3)
